# Data reported in publication PMC11983664, “Preclinical Pharmacokinetic Assessment of a Promising Vasorelaxant, Analgesic, and Anti‐Inflammatory Prototype 5‐[1‐(4‐Fluorophenyl)‐1H‐pyrazol‐4‐yl]‐2H‐tetrazole (LQFM020) Through Selective Bioanalytical HPLC‐PDA‐Based Method” (Biomedical Chromatography, 2025).
# “And” between values parts separate entries of the source, which are not always exact repeats. Identical values can stand only once. “Also recorded” adds a separate entry of the source. Like-named read-outs stand apart in the source and are kept apart here.
# Tests used:
# [1] = parameters: method as in earlier work; details: oral; ref Davies et al. [2000]; Dhondt et al. [2017]; Gong et al. [2012]; cited from earlier work
# [2] = Pharmacokinetic study after oral administration in rats; format: in vivo, male Wistar rats
# Experimental: (§1) Male Wistar rats (250–300 g) obtained from Central Vivarium of Federal University of Goiás (UFG) were housed under a 12‐h light/dark cycle (22°C–23°C), with free access to food and water. This in vivo pharmacokinetic study was conducted in accordance with Ethical Principles in Animal Research, adopted by International Guiding Principles for Biomedical Research Involving Animals and approved by the Institutional Ethics in Research Committee at the UFG (Protocol CEUA/UFG 085/17). All efforts were made to minimize animal suffering as preconized by regulatory institutions.
# (§2) LQFM020 was prepared in physiological solution containing DMSO 1% at dose of 10 mg/kg for intravenous administration (i.v., bolus), and then, blood samples (0.5 mL) were collected at 0, 0.5, 1, 2, 3, 4, 5, 6, and 24 h in heparinized microtubes. Oral administration (p.o.) was performed at LQFM020 dose of 9, 18, or 36 mg/kg prepared in physiological solution with DMSO 1%. Blood samples (0.5 mL) were collected at 0, 0.5, 1, 2, 3, 4, 5, 6, and 24 h in heparinized microtubes. Plasma samples were obtained by blood centrifugation (3000 g, 10 min) and were stored at −20°C.
# (§3) LQFM020 pharmacokinetic parameters were obtained by non‐compartmental model, including peak plasma concentration (Cmax) and time to reach it (Tmax), elimination half‐life (t1/2), elimination constant (Kel), total area under the curve of plasma concentration versus time (AUCT), apparent distribution volume (Vd), clearance (Cl), and mean residence time (MRT). These pharmacokinetic parameters were calculated by Phoenix Connect 1.3.1 software (Certara, Princeton, NJ, USA).
# LQFM020 absolute oral bioavailability F(%) was obtained applying AUCT and dose (D) from p.o. and i.v. administration, according to the equation: F%=AUCp.o./AUCi.v.×Di.v./Dp.o.×100
# [3] = Stability of LQFM020 in rat plasma (short-term, freeze-thaw, long-term); format: in vitro ADME; details: n = 3
# Experimental: Bioanalytical method validation was conducted in accordance with the guideline of Brazilian Health Surveillance Agency (ANVISA) RDC 27/2012, analyzing several parameters, such as matrix effect, recovery, selectivity, linearity, precision and accuracy, and stabilities (short‐term, long‐term, and freezing/thawing cycles) (ANVISA [2012]).
# Indeed, rat plasma concentrations (n = 3) of LQC and HQC presented a nonsignificant degradation below ±15% (RE), ranging from 89.2 ± 2.2% (short term) to 107.5 ± 1.8% (long term) at the end of storage condition times, as shown in Table 2.
# [4] = mouse, in vivo, po; cited from earlier work
# [5] = Pharmacokinetic study after intravenous bolus administration in rats; format: in vivo, male Wistar rats; details: i.v. 10 mg/kg, male adult rats; for AUC(0-t) / half-life: male, Wistar, rat, plasma, iv
# Experimental: as §1, §2, §3
# 3T3 cell = test system: 3T3 cell; parameters: method as in de Oliveira et al. [2017]; details: 3T3 cells; ref de Oliveira et al. [2017]; cited from earlier work
# CYP3A4 = CYP3A4 (Homo sapiens, UniProt P08684); experiment: CYP3A enzyme inhibition in vitro analysis (midazolam biotransformation, HPLC-PDA); format: in vitro ADME; details: LQFM020 100 μg/mL, midazolam 10 μg/mL, 37°C, 2 h
# Experimental: LQFM020 was evaluated for its ability to inhibit CYP3A4—the main subfamily responsible for drug metabolism in humans. […] Cold methanol was added after stirring these mixtures at 37°C for 2 h to stop the reaction and then centrifuged at 13,000 g for 10 min. The supernatant was filtered in Millex 0.22 μm pore and injected into HPLC system for the quantitation of midazolam. All samples were prepared in quintuplicate and analyzed by a HPLC‐PDA‐based method rigorously validated in our laboratory routine for the midazolam metabolites' quantification 1‐hydroxydazolam (1‐HMDZ) and 4‐hydroxydazolam (4‐HMDZ) (Ramirez De Oliveira et al. [2015]).
# [6] = Wistar, rat, plasma, oral 9 mg/kg, male adult rats, mean ± SEM, n = 3
# [7] = Wistar, rat, plasma, oral 18 mg/kg, male adult rats, mean ± SEM, n = 3
# [8] = Wistar, rat, plasma, oral 36 mg/kg, male adult rats, mean ± SEM, n = 3
# [9] = individual animals 1-3, 10 mg/kg
# [10] = 10 mg/kg, individual animals 1-3
# Chain of CYP3A4 (P08684 whole entry): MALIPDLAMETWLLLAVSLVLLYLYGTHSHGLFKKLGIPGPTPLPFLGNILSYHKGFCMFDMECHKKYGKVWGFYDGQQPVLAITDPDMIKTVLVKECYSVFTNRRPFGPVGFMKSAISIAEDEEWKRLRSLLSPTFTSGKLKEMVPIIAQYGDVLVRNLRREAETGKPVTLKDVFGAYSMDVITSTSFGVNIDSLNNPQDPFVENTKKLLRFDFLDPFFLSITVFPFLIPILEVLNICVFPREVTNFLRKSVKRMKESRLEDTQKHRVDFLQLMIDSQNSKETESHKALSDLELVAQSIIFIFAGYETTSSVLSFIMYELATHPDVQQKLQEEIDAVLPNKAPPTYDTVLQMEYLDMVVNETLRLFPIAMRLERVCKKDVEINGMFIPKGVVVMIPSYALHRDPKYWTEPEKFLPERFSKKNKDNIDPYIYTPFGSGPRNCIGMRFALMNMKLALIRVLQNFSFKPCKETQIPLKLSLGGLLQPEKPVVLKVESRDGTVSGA
smiles,measurement,setting,value
Cc1ccc(-c2cc(C(F)(F)F)nn2-c2ccc(S(N)(=O)=O)cc2)cc1 [celecoxib],Tmax,[1],2 to 4 h
"Fc1ccc(-n2cc(-c3nn[nH]n3)cn2)cc1 [LQFM020, 5‐[1‐(4‐fluorophenyl)‐1H‐pyrazol‐4‐yl]‐2H‐tetrazole]",AUC(0-t),[2]; [6],69.8 ± 5.33 µg·h/mL
same,Cmax,[2]; [6],16600 ± 4410 ng/mL
same,Tmax,[2]; [6],1.66 ± 0.66 h
same,Vd/F,[2]; [6],0.86 ± 0.4 L/kg
same,half-life,"[2]; Wistar, rat, plasma, oral 9 mg/kg, male adult rats, mean ± SEM, n = 3, read-out: t1/2 (converted)",5.82 ± 2.35 h
same,AUC(0-t),[2]; [7],110 ± 17.1 µg·h/mL
same,Cmax,[2]; [7],26600 ± 2030 ng/mL
same,Tmax,[2]; [7],0.83 ± 0.17 h
same,Vd/F,[2]; [7],1.44 ± 0.36 L/kg
same,half-life,"[2]; Wistar, rat, plasma, oral 18 mg/kg, male adult rats, mean ± SEM, n = 3, read-out: t1/2 (converted)",5.85 ± 0.96 h
same,AUC(0-t),[2]; [8],287 ± 82.4 µg·h/mL
same,Cmax,[2]; [8],55200 ± 21100 ng/mL
same,Tmax,[2]; [8],1.67 ± 0.66 h
same,Vd/F,[2]; [8],1.16 ± 0.26 L/kg
same,half-life,"[2]; Wistar, rat, plasma, oral 36 mg/kg, male adult rats, mean ± SEM, n = 3, read-out: t1/2 (converted)",6.74 ± 2.47 h
same,bioavailability,"[2]; male, Wistar, plasma, oral, rat, from AUC and dose of p.o. and i.v. (10 mg/kg) administration, read-out: absolute oral bioavailability F(%)",46%
same,half-life,"[2]; male, Wistar, rat, plasma, oral administration, rats, overall, read-out: elimination half-time (t1/2) (converted)",~6 h
same,ClT,"[2]; oral 9 mg/kg, male adult rats, mean ± SEM, n = 3",158 ± 14 mL/day/kg
same,ClT,"[2]; oral 18 mg/kg, male adult rats, mean ± SEM, n = 3",230 ± 29 mL/day/kg
same,ClT,"[2]; oral 36 mg/kg, male adult rats, mean ± SEM, n = 3",216 ± 86 mL/day/kg
same,"Stability, Accuracy (RE) (Mean ± CV%)","[3]; freeze–thaw (3 cycles), nominal 0.75 μg/mL",96.4 ± 2.6%
same,"Stability, Accuracy (RE) (Mean ± CV%)","[3]; freeze–thaw (3 cycles), nominal 15 μg/mL",96.0 ± 5.3%
same,"Stability, Accuracy (RE) (Mean ± CV%)","[3]; long duration (30 days, −20°C), nominal 0.75 μg/mL",102.1 ± 6.5%
same,"Stability, Accuracy (RE) (Mean ± CV%)","[3]; long duration (30 days, −20°C), nominal 15 μg/mL",107.5 ± 1.8%
same,"Stability, Accuracy (RE) (Mean ± CV%)","[3]; short duration (RT, 4 h), nominal 0.75 μg/mL",89.2 ± 2.2%
same,"Stability, Accuracy (RE) (Mean ± CV%)","[3]; short duration (RT, 4 h), nominal 15 μg/mL",94.5 ± 5.2%
same,orally well tolerated dose,[4],≤ 2000 mg/kg
same,AUCT,[5]; [9],1064.89 µg·h/mL and 1314.07 µg·h/mL
same,ClT/F,[5]; [9],12 mL/day/kg and 13 mL/day/kg and 10 mL/day/kg
same,Vd/F,[5]; [9],0.032 L/kg and 0.041 L/kg and 0.036 L/kg
same,t1/2,[5]; [9],3.06 h and 3.26 h
same,ClT/F,"[5]; mean ± SEM, n = 3",12 ± 0 mL/day/kg
same,Vd/F,"[5]; mean ± SEM, n = 3",0.03 ± 0.00 L/kg
same,t1/2,"[5]; mean ± SEM, n = 3, 10 mg/kg",3.05 ± 0.12 h
same,AUC(0-t),[5]; [10],1230 µg·h/mL
same,half-life,[5]; [10],2.83 h
same,AUC(0-t),"[5]; 10 mg/kg, mean ± SEM, n = 3",1220 ± 77.9 µg·h/mL
same,half-life,"[5]; 10 mg/kg, mean ± SEM, n = 3",~3 h
same,concentrations reducing 3T3 cell viability,3T3 cell,350 to 1400 µM
same,inhibition of CYP3A4 (peak areas of midazolam metabolites 1-HMDZ and 4-HMDZ vs negative control),CYP3A4,no significant effect; also recorded: absence of inhibition; also recorded: does not change the biotransformation
